The text below walks through data of patent publication US20030104063A1, “Pharmaceutical compositions of dispersions of amorphous drugs mixed with polymers” (priority 2001, published 2003).

Each structure is given as a SMILES string.

What all share (type): physicochemical
Data set [1] is described as follows: In vitro dissolution test of Drug 3 compositions in PBS (microcentrifuge, HPLC). The settings on record: for Drug 3 Concentration: PBS, 37° C. The protocol:
Example 6 was prepared by combining the dispersion with the concentration-enhancing polymer HPMCAS. 7.2 mg of the dispersion of Example 6 was added to microcentrifuge tubes. Tests were performed in duplicate. The tubes were placed in a 37° C. temperature-controlled chamber, and 1.8 mL PBS with 5.4 mg HPMCAS-MF was added. The tests were sampled as described in Example 1, and analyzed using HPLC.

The nature of data set [2]: In vitro dissolution test of Drug 4 compositions in PBS (microcentrifuge, HPLC). Also on record: AUC: concentration or dose not given beside the values. The settings on record: for Drug 4 Concentration: PBS, 37° C. The procedure:
Tests were performed in duplicate. The tubes were placed in a 37° C. temperature-controlled chamber, and 1.8 mL PBS with 7.2 mg PVA was added. The tests were sampled as described in Example 1, and analyzed using HPLC. HPLC analysis was performed using a Zorbax SB C18 column, with a mobile phase of 35 vol. % water and 65 vol. % methanol. UV absorbance of Drug 4 was measured at 297 nm.

Data set [3] in a line: In vitro dissolution test of Drug 5 compositions in MFDS pH 6.5 (microcentrifuge, HPLC). To be noted: for Drug 5 Concentration: MFDS pH 6.5, 37° C. The procedure:
Example 10 was prepared by combining the above amorphous dispersion with the concentration-enhancing polymer hydroxypropyl methylcellulose (HPMC E3 Prem LV, Dow Chemical Co.). 1.4 mg of the amorphous dispersion was added to microcentrifuge tubes. The tubes were placed in a 37° C. temperature-controlled chamber, and 1.8 mL PBS containing 0.5 wt % sodium taurocholic acid/1-palmitoyl-2-oleyl-sn-glycero-3-phosphocholine (MFDS, pH 6.5) and 0.4 mg HPMC was added. The tests were sampled as described in Example 1, and analyzed using HPLC.
For Control C12, in vitro dissolution tests were performed using the precedures described above except that 1.4 mg of the amorphous dispersion was tested without concentration-enhancing polymer (HPMC) in the test solution.

A short description of data set [4]: In vitro dissolution test of Drug 2 compositions in PBS with sodium taurocholic acid/POPC (microcentrifuge, HPLC). To be noted: for Drug 2 Concentration: PBS with sodium taurocholic acid/POPC, 37° C. The procedure: Example 5 was prepared by combining the drug/matrix dispersion of Drug 2 and polyethylene glycol with the concentration-enhancing polymer HPMCAS. Example 5 was evaluated in an in vitro dissolution test using a microcentrifuge method. In this test, 18 mg of the dispersion was added to each of two microcentrifuge tubes. The tubes were placed in a 37° C. temperature-controlled chamber, and 1.8 mL PBS containing 7.3 mM sodium taurocholic acid and 1.4 mM 1-palmitoyl-2-oleyl-sn-glycero-3-phosphocholine, with 7.2 mg HPMCAS-MF, was added. The tests were sampled as described in Example 1, and analyzed using HPLC. Samples were collected at 4, 10, 20, 40, 90, and 1200 minutes.

As a reminder, the AUC is concentration integrated over time.

Regarding `CCOC(=O)N1c2ccc(C(F)(F)F)cc2[C@@H](N(Cc2cc(C(F)(F)F)cc(C(F)(F)F)c2)C(=O)OC)C[C@H]1CC` [Control C9, [2R,4S] 4-[(3,5-bis-trifluoromethyl-benzyl)-methoxycarbonyl-amino]-2-ethyl-6-trifluoromethyl-3,4-dihydro-2H-quinoline-1-carboxylic acid ethyl ester], the “Drug 3 Concentration” value in data set [1] (0 min), in data set [1] (4 min), in data set [1] (10 min), in data set [1] (20 min), in data set [1] (40 min) and in data set [1] (90 min) was below 1 µg/mL throughout. Moreover, the “Drug 3 Concentration” value in data set [1] (1200 min) is below 1 µg/mL. Moreover, the AUC in data set [1] (Drug 3, 0 min) is below 1 µg·min/mL; in data set [1] (Drug 3, 4 min) it was below 1 µg·min/mL; in data set [1] (Drug 3, 10 min), below 1 µg·min/mL; in data set [1] (Drug 3, 20 min), below 1 µg·min/mL; in data set [1] (Drug 3, 40 min) it was below 1 µg·min/mL; in data set [1] (Drug 3, 90 min) it was below 1 µg·min/mL. In data set [1] (Drug 3, 1200 min), the AUC is below 1 µg·min/mL. The same compound yielded an AUC90 in data set [1] (Drug 3, after 90 minutes) below 1 µg·min/mL. The C1200 in data set [1] (Drug 3 concentration at 1200 minutes) was below 1 µg/mL. Also, in data set [1] (maximum concentration of Drug 3 during the first 90 minutes), the “Cmax,90” value was below 1000 ng/mL.
As for `O=C(N[C@@H](Cc1ccccc1)[C@@H](O)C(=O)N1C[C@@H](O)[C@@H](O)C1)c1cc2cc(Cl)ccc2[nH]1` [Control C11, 5-chloro-1H-indole-2-carboxylic acid [(1S)-benzyl-3-((3R, 4S)-dihydroxypyrrolidin-1-yl-)-(2R)-hydroxy-3-oxypropyl] amide], the “Drug 4 Concentration” value in data set [2] (0 min) worked out at 0 µg/mL; in data set [2] (4 min), 360 µg/mL; in data set [2] (10 min), 382 µg/mL; in data set [2] (20 min), 372 µg/mL; in data set [2] (40 min), 345 µg/mL; in data set [2] (90 min) it was 262 µg/mL. Besides, in data set [2] (1200 min), the “Drug 4 Concentration” value was determined as 154 µg/mL. Also, the AUC in data set [2] (Drug 4, 0 min) was 0 µg·min/mL; in data set [2] (Drug 4, 4 min), 700 µg·min/mL; in data set [2] (Drug 4, 10 min), 2,900 min*μg/mL; in data set [2] (Drug 4, 20 min), 6,700 min*μg/mL; in data set [2] (Drug 4, 40 min), 13,900 min*μg/mL; in data set [2] (Drug 4, 90 min), 29,100 min*μg/mL. In data set [2] (Drug 4, 1200 min), the AUC is 259,800 min*μg/mL. The AUC90 in data set [2] (Drug 4, after 90 minutes) was 29,100 min*μg/mL. The compound also gave a C1200 in data set [2] (Drug 4 concentration at 1200 minutes) of 154 µg/mL. In addition, the “Cmax,90” value in data set [2] (maximum concentration of Drug 4 during the first 90 minutes) is 382000 ng/mL.
Turning to `CS(=O)(=O)O.O=C1Cc2cc(CCN3CCN(c4nsc5ccccc45)CC3)c(Cl)cc2N1` [Control C13], the “Drug 5 Concentration” value in data set [3] (0 min) was found to be 0 µg/mL; in data set [3] (4 min), 16 µg/mL; in data set [3] (10 min), 8 µg/mL; in data set [3] (20 min), 5 µg/mL; in data set [3] (40 min) it was 4 µg/mL; in data set [3] (90 min), 4 µg/mL. Moreover, in data set [3] (1200 min), the “Drug 5 Concentration” value turned out to be 4 µg/mL. The AUC in data set [3] (Drug 5, 0 min) amounted to 0 µg·min/mL; in data set [3] (Drug 5, 4 min) it was 0 µg·min/mL; in data set [3] (Drug 5, 10 min), 100 µg·min/mL; in data set [3] (Drug 5, 20 min), 200 µg·min/mL; in data set [3] (Drug 5, 40 min), 300 µg·min/mL; in data set [3] (Drug 5, 90 min), 500 µg·min/mL. Further, the AUC in data set [3] (Drug 5, 1200 min) is on record as 4,900 min*μg/mL. This compound also yielded an AUC90 in data set [3] (Drug 5, after 90 minutes) of 500 µg·min/mL. In data set [3] (Drug 5 concentration at 1200 minutes), the C1200 amounted to 4 µg/mL. In addition, the “Cmax,90” value in data set [3] (maximum concentration of Drug 5 during the first 90 minutes) worked out at 16000 ng/mL.
Consider `CCC(CC)Oc1c(C)cnc(Oc2c(C)cc(C)cc2C)c1C` [Control C7, 3,5-dimethyl-4-(3′-pentoxy)-2-(2′, 4′, 6′-trimethylphenoxy) pyridine], for which the “Drug 2 Concentration” value is 0 µg/mL in data set [4] (0 min); 16 µg/mL in data set [4] (4 min); 33 µg/mL in data set [4] (10 min); 32 µg/mL in data set [4] (20 min); 30 µg/mL in data set [4] (40 min); 39 µg/mL in data set [4] (90 min). In addition, the “Drug 2 Concentration” value in data set [4] (1200 min) turned out to be 37 µg/mL. Moreover, the AUC in data set [4] (Drug 2, 0 min) was 0 µg·min/mL; in data set [4] (Drug 2, 4 min), 0 µg·min/mL; in data set [4] (Drug 2, 10 min) it was 200 µg·min/mL; in data set [4] (Drug 2, 20 min), 500 µg·min/mL; in data set [4] (Drug 2, 40 min), 1,100 min*μg/mL; in data set [4] (Drug 2, 90 min) it was 2,800 min*μg/mL. In addition, the exposure (AUC) in data set [4] (Drug 2, 1200 min) is 45,000 min*μg/mL. For the same compound, in data set [4] (Drug 2, area under the concentration versus time curve after 90 minutes), the AUC90 worked out at 2800 µg·min/mL. Moreover, in data set [4] (Drug 2 concentration at 1200 minutes), the C1200 was 37 µg/mL. In addition, the “Cmax,90” value in data set [4] (maximum concentration of Drug 2 in solution during the first 90 minutes) amounted to 39000 ng/mL.
